According to patent US10807994B2, “Heterocyclic compounds and uses thereof” (NUVATION BIO INC., priority 2017, dated 2020):
pIC50: −log10 of the molar value. Counter-ions that a name gives are not always drawn. Like-named read-outs stand apart in the source and are kept apart here.

Experiments:
WEE1 kinase enzyme = WEE1 kinase enzyme (Homo sapiens (Human), UniProt P30291); experiment: WEE1 IC50 determination, LanthaScreen Terbium labeled TR-FRET kinase assay; format: biochemical; settings: WEE1 enzyme 1 nM
Procedure: IC50 values of compounds against WEE1 kinase enzyme were determined by LanthaScreen™ Terbium Labeled TR-FRET assay. Kinase assays were performed in 1× kinase buffer (# PV6135, Invitrogen, Life Technologies Grand Island, N.Y.) where total reaction volume was 10 μl in low-volume 384-well plates (#4511, Corning). Serially diluted compounds (3-fold) were incubated with WEE1 Enzyme (1 nM) (# PR7373A, Invitrogen, Life Technologies Grand Island, N.Y.) for 10 min, following which a mixture of ATP […] (# A1852, Sigma, St-Louis, Mo.) and fluorescent-PolyGT substrate (200 nM) (# PV3610, Invitrogen, Life Technologies Grand Island, N.Y.) was added and incubated in dark at room temperature for 1 h. After 1 h, 10 μl stop solution containing Terbium labeled antibody (4 nM) (# PV3529, Invitrogen, Life Technologies Grand Island, N.Y.) and EDTA (# E5134, Sigma, St-Louis, Mo.) (20 mM) in TR-FRET dilution buffer (# PV3574, Invitrogen, Life Technologies Grand Island, N.Y.) was added. Readings were taken in a Synergy Neo Plate reader (BioTek, Winooski) at single excitation of 340 nm and Dual emission at 495 nm and 520 nm respectively.
The % activity of test samples was calculated as (Sample−Min)*100/(Max−Min). [Max: DMSO control, complete reaction with enzyme & DMSO and Min: No enzyme & DMSO]. Percent inhibition (100-% activity) was fitted to the “four-parameter logistic model” in XLfit for determination of IC50 values.

A427 cells [1] = experiment: Cytotoxicity assay (resazurin), A427 cells, 72 hr; format: cell-based
Procedure: (§1) A549 (CCL-185; ATCC) and A427 (HTB-53; ATCC), both lung epithelial cell lines were seeded in their respective medium (DMEM/MEM, 10569044/41090101; Gibco) at a cell count of 1500 cells per 100 μL per well in a 96 well edge plate (167425; ThermoFisher). Cells were allowed to grow at 37° C. for 24 hr in 5% CO2 environment (culture conditions) in a Nuaire incubator (humidified). Serially diluted test compounds (100 μL) within the desired testing concentration ranges were added to the culture plate were further incubated in culture conditions for 72 hr and 96 hr for A427 and A549 respectively. The experiment was terminated at the designated incubation time by replacing the medium with 100 μL of 1 mM of resazurin (R7017; Sigma) prepared in respective culture medium, and the plates were further incubated in culture conditions for 4-6 hr. Fluorescence was recorded using a multimodal plate reader (Biotek Synergy Neo) at an excitation wavelength of 535 nm and emission wavelength of 590 nm to obtain relative fluorescence units. Data analysis was done by subtracting the background fluorescence (only medium blank) value from each reading and then normalizing with the vehicle control (DMSO treated cells) to obtain percent survival/proliferation. Percent survival was then subtracted by 100 to get the percent inhibition of proliferation which was used to calculate IC50 values. Potency of compounds in other cell lines (As-Pc-1, Panc-10.05, MDAMB231, A172) was determined in an analogous manner.

A549 cells = experiment: Cytotoxicity assay (resazurin), A549 cells, 96 hr; format: cell-based; settings: read-out: Cell Viability A549 IC50
Procedure: as §1

A427 cells [2] = experiment: Cell proliferation assay (Cell Titer-Glo), A427 cells; format: cell-based; settings: Homo sapiens, A-427, typically 72 hrs post-treatment
Procedure: The effects of test compounds were studied in five cell lines with various histotypes. The cancer cells (Table 4) were harvested during the logarithmic growth period and counted. Adjust cell concentrations to the appropriated number with respective medium, and add 90 μL cell suspensions to 96-well plates. After cells were seeded, the plates were shaken gently to distribute cells evenly and incubated at 37° C., 5% CO2 on day 1.
Cells were treated with test compounds at 9 concentrations within a desired concentration range (e.g. 1.5 nM-10 μM) on day 2 by series diluting the test compound stock solution (10 mM in DMSO) with culture medium. Cell viability was assessed by Cell Titer-Glo® as recommended by Promega (Cat. No.: G7572, Promega) typically 72 hrs post-treatment.
Cell viability data were plotted using GraphPad Prism (version 5, GraphPad Software, Inc., San Diego, Calif.). In addition, a nonlinear regression model with a sigmoidal dose response and variable slope within GraphPad Prism was used to calculate the IC50 value of individual test compounds.

[3] = Homo sapiens, A-427, read-out: Cell Viability A427 IC50

WEE1 kinase enzyme, sequence (P30291 whole entry): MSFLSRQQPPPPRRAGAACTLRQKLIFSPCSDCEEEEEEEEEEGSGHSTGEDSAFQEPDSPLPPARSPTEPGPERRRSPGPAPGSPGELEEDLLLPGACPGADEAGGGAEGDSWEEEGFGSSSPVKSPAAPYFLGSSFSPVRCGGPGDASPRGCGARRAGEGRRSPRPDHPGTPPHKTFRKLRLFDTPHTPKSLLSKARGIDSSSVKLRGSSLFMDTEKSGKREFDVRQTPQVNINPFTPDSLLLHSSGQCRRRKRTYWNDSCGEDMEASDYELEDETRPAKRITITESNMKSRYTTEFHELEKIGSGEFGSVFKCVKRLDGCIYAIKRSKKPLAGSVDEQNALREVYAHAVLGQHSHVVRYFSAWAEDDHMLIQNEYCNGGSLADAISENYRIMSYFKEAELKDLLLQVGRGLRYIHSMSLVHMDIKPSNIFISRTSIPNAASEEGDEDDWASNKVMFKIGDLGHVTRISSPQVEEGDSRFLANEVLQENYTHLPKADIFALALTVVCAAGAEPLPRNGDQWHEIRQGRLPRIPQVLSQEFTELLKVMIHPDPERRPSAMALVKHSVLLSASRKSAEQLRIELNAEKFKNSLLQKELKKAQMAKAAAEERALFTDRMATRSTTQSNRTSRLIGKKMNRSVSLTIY

| pIC50 (WEE1 kinase enzyme) | SMILES | pIC50 (A427 cells [1]; [3]) | pIC50 (A549 cells; Homo sapiens) | pIC50 (A427 cells [2]) | pIC50 (A427 cells [1]; read-out: Cell Viability A427 IC50) | pIC50 (A549 cells) |
| --- | --- | --- | --- | --- | --- | --- |
| 7.25 | CN1CCN(c2ccc(Nc3ncc4c(n3)OCN(c3c(Cl)cccc3Cl)C4=O)cc2)CC1 [Example 1.1] | 5.35 | 5.01 |  |  |  |
| 7.16 | O=C1c2cnc(Nc3ccc(N4CCNCC4)cc3)nc2OCN1c1c(Cl)cccc1Cl [Example 1.5] | 5.41 | 5.42 | 5.37 |  |  |
| 7.32 | CN1CCN(c2ccc(Nc3ncc4c(n3)OCN(c3c(Cl)cccc3Cl)C4=O)cc2CO)CC1 [Example 1.20] | 5.26 | 5.22 | 5.44 |  |  |
| 7.28 | O=C1c2cnc(Nc3ccc(N4CCNCC4)cc3)nc2OCN1c1c(F)cccc1Cl [Example 1.27] | 5.16 | 5.36 | 5.11 |  |  |
| 7.30 | Cc1cc(Nc2ncc3c(n2)OCN(c2c(Cl)cccc2Cl)C3=O)ccc1N1CCNCC1 [Example 1.33, 3-(2,6-dichlorophenyl)-7-(3-methyl-4-(piperazin-1-yl)phenylamino)-2H-pyrimido[5,4-e][1,3]oxazin-4(3H)-one] | 5.55 | 5.57 |  |  |  |
| 7.85 | O=C1c2cnc(Nc3ccc(C4CCNCC4)c(CO)c3)nc2OCN1c1c(Cl)cccc1Cl [Example 1.34, 3-(2,6-dichlorophenyl)-7-(3-(hydroxymethyl)-4-(piperidin-4-yl)phenylamino)-2H-pyrimido[5,4-e][1,3]oxazin-4(3H)-one] |  |  |  | 5.32 | 4.68 |
| 6.98 | O=C1c2cnc(Nc3ccc(N4CCNCC4)nc3)nc2OCN1c1c(Cl)cccc1Cl [Example 1.36, 3-(2,6-dichlorophenyl)-7-((6-(piperazin-1-yl)pyridin-3-yl)amino)-2,3-dihydro-4H-pyrimido[5,4-e][1,3]oxazin-4-one] | 4.98 | 5.09 |  |  |  |
| 7.70 | O=C1c2cnc(Nc3ccc(N4CCNCC4)c(Cl)c3)nc2OCN1c1c(Cl)cccc1Cl [Example 1.40, 7-(3-chloro-4-(piperazin-1-yl)phenylamino)-3-(2,6-dichlorophenyl)-2H-pyrimido[5,4-e][1,3]oxazin-4(3H)-one] | 5.58 | 5.56 |  |  |  |
| 7.60 | CN1CCC(c2ccc(Nc3ncc4c(n3)OCN(c3c(Cl)cccc3Cl)C4=O)cc2CO)CC1 [Example 1.42, 3-(2,6-dichlorophenyl)-7-(3-(hydroxymethyl)-4-(1-methylpiperidin-4-yl)phenylamino)-2H-pyrimido[5,4-e][1,3]oxazin-4(3H)-one] | 5.49 | 5.25 |  |  |  |
| 6.54 | O=C1c2cnc(Nc3ccc(N4CCC(O)CC4)cc3)nc2OCN1c1c(Cl)cccc1Cl [Example 1.45, 3-(2,6-dichlorophenyl)-7-(4-(4-hydroxypiperidin-1-yl)phenylamino)-2H-pyrimido[5,4-e][1,3]oxazin-4(3H)-one] |  | < 4.52 |  |  |  |
| 7.28 | NCC(=O)N1CCN(c2ccc(Nc3ncc4c(n3)OCN(c3c(Cl)cccc3Cl)C4=O)cc2)CC1 [Example 1.46, 7-(4-(4-(2-aminoacetyl)piperazin-1-yl)phenylamino)-3-(2,6-dichlorophenyl)-2H-pyrimido[5,4-e][1,3]oxazin-4(3H)-one] |  | 5.01 |  |  |  |
| 7.15 | C[C@@H]1CN[C@@H](C)CN1c1ccc(Nc2ncc3c(n2)OCN(c2c(Cl)cccc2Cl)C3=O)cc1 [Example 1.47, 3-(2,6-dichlorophenyl)-7-(4-((2R,5S)-2,5-dimethylpiperazin-1-yl)phenylamino)-2H-pyrimido[5,4-e][1,3]oxazin-4(3H)-one hydrochloride] | 5.15 | 5.39 |  |  |  |
| 6.99 | CNCCOc1ccc(Nc2ncc3c(n2)OCN(c2c(Cl)cccc2Cl)C3=O)cc1 [Example 1.48, 3-(2,6-dichlorophenyl)-7-(4-(2-(methylamino)ethoxy)phenylamino)-2H-pyrimido[5,4-e][1,3]oxazin-4(3H)-one] | 4.96 | 5.08 |  |  |  |
| 7.39 | C[C@@H]1CNCCN1c1ccc(Nc2ncc3c(n2)OCN(c2c(Cl)cccc2Cl)C3=O)cc1 [Example 1.49, (R)-3-(2,6-dichlorophenyl)-7-(4-(2-methylpiperazin-1-yl)phenylamino)-2H-pyrimido[5,4-e][1,3]oxazin-4(3H)-one] | 5.27 | 5.36 |  |  |  |
| 7.55 | COc1cc(Nc2ncc3c(n2)OCN(c2c(Cl)cccc2Cl)C3=O)ccc1C1CCNCC1 [Example 1.50, 3-(2,6-dichlorophenyl)-7-(3-methoxy-4-(piperidin-4-yl)phenylamino)-2H-pyrimido[5,4-e][1,3]oxazin-4(3H)-one] | 5.46 | 5.55 |  |  |  |
| 7.30 | CN1CCC(c2ccc(Nc3ncc4c(n3)OCN(c3c(Cl)cccc3Cl)C4=O)cc2)CC1 [Example 1.52, 3-(2,6-dichlorophenyl)-7-(4-(1-methylpiperidin-4-yl)phenylamino)-2H-pyrimido[5,4-e][1,3]oxazin-4(3H)-one] | 5.48 | 5.33 |  |  |  |
| 6.70 | CNCCNc1ccc(Nc2ncc3c(n2)OCN(c2c(Cl)cccc2Cl)C3=O)cc1 [Example 1.54, 3-(2,6-dichlorophenyl)-7-(4-(2-(methylamino)ethylamino)phenylamino)-2H-pyrimido[5,4-e][1,3]oxazin-4(3H)-one Hydrochloride] | 4.98 | 5.02 |  |  |  |
| < 5.30 | O=C1c2cnc(Nc3ccc(N4CCCC4)cc3)nc2OCN1c1c(Cl)cccc1Cl [Example 1.56, 3-(2,6-dichlorophenyl)-7-(4-(pyrrolidin-1-yl)phenylamino)-2H-pyrimido[5,4-e][1,3]oxazin-4(3H)-one] | 4.98 | 5.73 |  |  |  |
| 7.00 | CNCC(=O)N1CCN(c2ccc(Nc3ncc4c(n3)OCN(c3c(Cl)cccc3Cl)C4=O)cc2)CC1 [Example 1.57, 3-(2,6-dichlorophenyl)-7-(4-(4-(2-(methylamino)acetyl)piperazin-1-yl)phenylamino)-2H-pyrimido[5,4-e][1,3]oxazin-4(3H)-one hydrochloride] | 5.31 | 5.21 |  |  |  |
| 6.63 | O=C1c2cnc(Nc3ccc(N4CCN(CCO)CC4)cc3)nc2OCN1c1c(Cl)cccc1Cl [Example 1.58, 3-(2,6-dichlorophenyl)-7-(4-(4-(2-hydroxyethyl)piperazin-1-yl)phenylamino)-2H-pyrimido[5,4-e][1,3]oxazin-4(3H)-one] | 5.15 | 4.91 |  |  |  |
